Assay results published in article PMC4526861, “Inhibition of protein kinase C by isojacareubin suppresses hepatocellular carcinoma metastasis and induces apoptosis in vitro and in vivo” (Scientific Reports, 2015).

Key:
[1] = biological target: T1, PKCμ (Homo sapiens, UniProt Q15139); assay: Cell-based pull-down assay, PKCμ; format: binding; details: HepG2 lysates
T1 construct: Endogenous cPKC (PKCα) and nPKC (PKCδ, PKCε and PKCμ) in HepG2 lysates were pulled down; endogenous in cells; host or cells: HepG2
T1 sequence (Q15139 1-912): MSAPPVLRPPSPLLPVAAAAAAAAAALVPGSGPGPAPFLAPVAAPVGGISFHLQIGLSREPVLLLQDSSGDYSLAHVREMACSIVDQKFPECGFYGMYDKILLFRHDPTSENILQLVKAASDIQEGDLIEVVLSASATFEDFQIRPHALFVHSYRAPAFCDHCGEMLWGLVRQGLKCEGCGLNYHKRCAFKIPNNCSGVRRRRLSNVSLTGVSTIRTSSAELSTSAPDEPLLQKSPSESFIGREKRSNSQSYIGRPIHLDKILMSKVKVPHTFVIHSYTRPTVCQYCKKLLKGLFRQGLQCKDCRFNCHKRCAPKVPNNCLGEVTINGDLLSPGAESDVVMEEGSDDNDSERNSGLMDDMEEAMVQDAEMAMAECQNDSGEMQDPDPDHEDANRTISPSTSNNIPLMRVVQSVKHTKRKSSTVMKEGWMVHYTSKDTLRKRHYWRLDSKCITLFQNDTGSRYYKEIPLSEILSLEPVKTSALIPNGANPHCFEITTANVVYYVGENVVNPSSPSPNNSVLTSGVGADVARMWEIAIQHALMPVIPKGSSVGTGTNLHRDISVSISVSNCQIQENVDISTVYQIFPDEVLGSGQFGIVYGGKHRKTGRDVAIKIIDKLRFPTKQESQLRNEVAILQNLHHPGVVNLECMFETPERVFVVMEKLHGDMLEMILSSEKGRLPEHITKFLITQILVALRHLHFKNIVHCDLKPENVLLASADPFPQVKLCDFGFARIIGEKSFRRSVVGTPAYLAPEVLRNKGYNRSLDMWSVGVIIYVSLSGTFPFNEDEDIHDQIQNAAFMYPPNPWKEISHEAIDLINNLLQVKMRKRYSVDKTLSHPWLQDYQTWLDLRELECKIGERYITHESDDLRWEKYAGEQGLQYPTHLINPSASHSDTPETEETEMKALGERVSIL
Protocol: To identify whether ISJ and compound 7 target PKC in cells, we performed pull-down experiments using ISJ- and compound 7-coupled Sepharose beads with HepG2 cell lysates. Endogenous cPKC (PKCα) and nPKC (PKCδ, PKCε and PKCμ) in HepG2 lysates were pulled down by ISJ-coupled CNBr-activated Sepharose 4B beads (Fig. 5a).
The control beads were prepared by incubating the beads with DMSO. Proteins (500 μg) from lysed HepG2 cells were mixed with either the control beads, compound 7-coupled beads, or ISJ-coupled beads (100 μL) in reaction buffer [50 mM Tris (pH 7.5), 5 mM EDTA, 150 mM NaCl, 1 mM DTT, 0.01% NP-40, 2 μg/mL BSA, 1 mM PMSF, 1% protease inhibitor mixture]. After incubation with gentle rocking overnight at 4 °C, the beads were washed 5 times with washing buffer [50 mM Tris (pH 7.5), 5 mM EDTA, 150 mM NaCl, 1 mM DTT, 0.01% NP-40, 1 mM PMSF], and binding was visualized by western blotting.

[2] = test system: PKC; assay: PKC activity assay (PepTag non-radioactive, HepG2 lysates); format: biochemical, human; details: 3 h
Protocol: The activity of PKC in HepG2 cells was assessed 3 h after the addition of compound 7 or ISJ by measuring the phosphorylation of a PKC-specific target peptide. Compared to the basal control (in the absence of any compound), PKC activity was inhibited by compound 7 and ISJ.
Figure 3 Effects of compound 7 and ISJ on PKC activity in HepG2 cells. The proteins from lysed HepG2 cells were prepared and measured for their ability to phosphorylate a PKC-specific peptide substrate (PLSRTLSVAAK) in a non-radioactive assay. (a) Lanes 1 and 2 show the negative (water only) and positive controls (with 20 ng purified PKC). Supernatants from HepG2 cells were subjected to the PKC activity assay in the absence (basal control, lane 3) or presence (lanes 4–7) of the compounds. Compound 7 (lanes 4 and 5) and ISJ (lanes 6 and 7) were added separately at 10 and 5 μM. (b) Quantification of (a); *P < 0.05 versus the basal control. Data are shown as the mean ± SD of three independent experiments.
The PKC activity assay was carried out as previously reported, according to the instructions of the PepTag non-radioactive PKC assay kit (Promega)[60]. The bands were photographed using the Syngene GBOX-iCHEMI-XR system, and the phosphorylated bands were cut out for quantification measurement at 570 nm.

[3] = test system: c-PARP, c-Cas3 and c-Cas9 in xenograft tumors; assay: Histology, IHC and immunoblot of xenograft tumors; format: in vivo, BALB/c-nu nude mice; details: 5 mg/kg
Protocol: The total membrane and cytosolic proteins were extracted using a Membrane and Cytosol Protein Extraction Kit (Beyotime). Extracted proteins from cells or animal tissues were separated by SDS-PAGE and transferred to polyvinylidene difluoride (PVDF) membranes (Bio-Rad). The PVDF membranes were blocked with 5% nonfat milk and incubated with primary antibodies overnight, followed by incubation with a donkey anti-rabbit or anti-mouse secondary antibody (IRDye 800, LI-COR, Biosciences). The images were captured using the Odyssey Infrared Imaging System (LI-COR, Biosciences), according to the manufacturer's instructions. The intensity was quantitative with Quantity One software (Bio-Rad). To ensure equal protein loading, each membrane was stripped and reprobed with an anti-β-actin antibody. All experiments were repeated independently no less than three times.
To further confirm the antitumor activities of compound 7 and ISJ in vivo, histological analysis was performed on the hepatoma xenografts. Briefly, the samples were fixed in a 10% formalin solution, processed, embedded, sectioned and either H&E stained to reveal tumor tissue necrosis or IHC stained using antibodies against c-PARP, c-Cas3 or c-Cas9. The H&E and IHC images were obtained on a Leica DMI3000 B phase-contrast microscopy. The immunoreactive areas in the IHC images were quantified using ImagePro Plus 6.0 software (Media Cybernetics, Silver Spring, MD). The integrated optical density (IOD) values were represented as the mean ± SEM.

Substance: Isojacareubin [ISJ]
- pull-down of endogenous PKCμ by compound-coupled Sepharose 4B beads [1]: pulled down
- inhibition of PKC activity compared to the basal control ([2]; 5 μM): 52.3%
- inhibition of PKC activity compared to the basal control ([2]; 10 μM): 77.7%
- H&E staining of xenograft tumors [3]: significant tissue death
- IHC c-PARP, c-Cas3 and c-Cas9 levels in tumors [3]: upregulated expression
- immunoblot c-PARP, c-Cas3 and c-Cas9 levels in tumor tissue [3]: increased
